This note sets out measurements from patent US20230080054A1 (ILDONG PHARMACEUTICAL CO., LTD., priority 2021, published 2023).

In assay [1] the target is T1, human ANO6 (Homo sapiens, UniProt Q4KMQ2).
T1 construct: expressed in transfected cells
T1 sequence (Q4KMQ2 1-931 isoform Q4KMQ2-2): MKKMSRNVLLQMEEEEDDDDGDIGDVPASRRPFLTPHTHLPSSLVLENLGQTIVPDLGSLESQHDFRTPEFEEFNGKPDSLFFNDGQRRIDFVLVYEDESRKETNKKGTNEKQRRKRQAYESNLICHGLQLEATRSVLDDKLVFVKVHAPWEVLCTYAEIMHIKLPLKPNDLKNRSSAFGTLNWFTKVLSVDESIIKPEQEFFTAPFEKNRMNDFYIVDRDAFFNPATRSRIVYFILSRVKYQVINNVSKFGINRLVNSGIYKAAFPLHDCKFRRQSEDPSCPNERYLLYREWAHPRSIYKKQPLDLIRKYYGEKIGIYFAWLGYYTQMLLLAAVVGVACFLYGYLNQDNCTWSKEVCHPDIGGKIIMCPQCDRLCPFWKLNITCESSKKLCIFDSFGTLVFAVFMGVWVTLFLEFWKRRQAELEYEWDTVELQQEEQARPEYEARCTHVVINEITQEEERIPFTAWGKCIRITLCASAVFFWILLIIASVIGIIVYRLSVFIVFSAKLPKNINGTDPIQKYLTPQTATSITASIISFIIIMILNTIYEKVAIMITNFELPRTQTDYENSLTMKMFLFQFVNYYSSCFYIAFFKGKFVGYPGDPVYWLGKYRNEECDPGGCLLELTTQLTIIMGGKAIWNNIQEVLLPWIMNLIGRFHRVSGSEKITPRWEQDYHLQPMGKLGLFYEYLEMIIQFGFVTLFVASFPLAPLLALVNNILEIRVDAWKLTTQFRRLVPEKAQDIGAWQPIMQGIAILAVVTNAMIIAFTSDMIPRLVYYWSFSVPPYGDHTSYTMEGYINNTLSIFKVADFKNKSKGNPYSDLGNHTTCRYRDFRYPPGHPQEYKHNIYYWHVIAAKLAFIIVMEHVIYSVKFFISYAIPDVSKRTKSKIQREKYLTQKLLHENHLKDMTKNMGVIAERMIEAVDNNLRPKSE
The assay can be described thus: LACT C2 assay (phosphatidylserine scramblase function assay). It counts as cell-based. To be noted: FRT cells expressing human ANO6, 10 μM ionomycin; for inhibition at 0.1 µM: test compound 100 nM, read-out: Inhibition Level 100 nM; for inhibition at 1 µM: test compound 1 μM, read-out: Inhibition Level 1 μM. The gist of the method:
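Inhibition was normalised between ionomycin-only (0%) and untreated (100%) wells, with triplicates averaged. Readout was background-corrected Lact-C2-GFP (500 nM) fluorescence from imaged cells. The cells were FRT cells stably expressing human ANO6, given compound at 1% DMSO for 10 min before a 10 min 10 μM ionomycin challenge.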

In assay [2] the target is T1, human ANO6. As to the kind of experiment: YFP quenching assay (ANO6 ion channel activity). The class given is cell-based. To be noted: 10 μM ionomycin; for inhibition at 1 µM: test compound 1 μM, read-out: Inhibition Level 1 μM; for inhibition at 30 µM: test compound 30 μM, read-out: Inhibition Level 30 μM. In short, it runs like this: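 FRT cells stably expressing human ANO6 and YFP-H148Q/I152L/F46L, preincubated 10 min at 40° C with compounds (1% DMSO) in PBS. Quench read every 0.4 s after injecting 140 mM SCN- with 10 μM ionomycin; % inhibition from the 3.6–7.6 s fluorescence difference, normalised to no-ionomycin (100%) and ionomycin-only (0%) wells, duplicate or triplicate.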

Broadly, the inhibition is the change of the read-out against control, counted positive when it falls.

The structures appear in SMILES notation.

With `O=C(NC1CCCCC1)c1cccc(Nc2ccc(-c3ccc(F)cc3)nn2)c1` [Compound A2], on human ANO6 [1], the inhibition at 0.1 µM was less than 30% and the inhibition at 1 µM was less than 30%. For the same compound, on human ANO6 [2], the inhibition at 1 µM was not below 60% and the inhibition at 30 µM is not below 60%.
As for `CCN(CC)c1ccc(CNC(=O)c2cccc(Nc3ccc(-c4ccccc4)nn3)c2)cc1` [Compound A55], on human ANO6 [1], the inhibition at 0.1 µM was less than 30% and the inhibition at 1 µM is less than 30%. For the same compound, at human ANO6 [2], the inhibition at 1 µM was not below 60% and the inhibition at 30 µM is not below 60%.
In the case of `O=C(NCc1ccoc1)c1cccc(Nc2ccc(-c3ccccc3)nn2)c1` [Compound 45, N-[(furan-3-yl)methyl]-3-[(6-phenylpyridazin-3-yl)amino]benzamide], the inhibition at 1 µM is less than 30% at human ANO6 [1] and not below 60% on human ANO6 [2].
As for `O=C(NCc1ccc(Cl)cc1)c1cccc(Nc2ccc(-c3ccccc3)nn2)c1` [Compound A49], at human ANO6 [1], the inhibition at 0.1 µM is less than 30% and the inhibition at 1 µM was in the range of 30 to 60%. Also, at human ANO6 [2], the inhibition at 1 µM lay in the range of 30 to 60% and the inhibition at 30 µM is not below 60%.
As for `O=C(Nc1cccc(F)c1)c1cccc(Nc2ccc(-c3ccccc3)nn2)c1` [Compound 29, N-(3-fluorophenyl)-3-[(6-phenylpyridazin-3-yl)amino]benzamide], at human ANO6 [1], the inhibition at 0.1 µM lay in the range of 30 to 60% and the inhibition at 1 µM was not below 60%. For the same compound, at human ANO6 [2], the inhibition at 1 µM was not below 60% and the inhibition at 30 µM is not below 60%.
Regarding `O=C(NC1CCCCC1)c1cccc(Nc2ccc(-c3ccccc3)nn2)c1` [Compound A62], at human ANO6 [1], the inhibition at 0.1 µM was less than 30% and the inhibition at 1 µM was 30 to 60%. In addition, at human ANO6 [2], the inhibition at 1 µM was in the range of 30 to 60% and the inhibition at 30 µM was not below 60%.
Consider `Cc1ccc(CNC(=O)c2cccc(Nc3ccc(-c4cccc(F)c4)cc3)c2)o1` [Compound 57, 3-({3′-fluoro-[1,1′-biphenyl]-4-yl}amino)-N-[(5-methylfuran-2-yl)methyl]benzamide], for which, on human ANO6 [1], the inhibition at 0.1 µM is less than 30% and the inhibition at 1 µM was not below 60%. Besides, the inhibition at 1 µM at human ANO6 [2] was not below 60%.
As for `O=C(NCCC1CCCCC1)c1cccc(Nc2ncc(-c3ccccc3)cn2)c1` [Compound 81, N-(2-cyclohexylethyl)-3-[(5-phenylpyrimidin-2-yl)amino]benzamide], at human ANO6 [1], the inhibition at 0.1 µM fell in the range of 30 to 60% and the inhibition at 1 µM is not below 60%. Further, the inhibition at 1 µM at human ANO6 [2] was not below 60%.
As for `O=C(NCCc1ccccc1)c1cccc(Nc2ccc(-c3ccccc3)nn2)c1` [Compound A74], on human ANO6 [1], the inhibition at 0.1 µM was less than 30% and the inhibition at 1 µM lay within 30 to 60%. At human ANO6 [2], the inhibition at 1 µM is not below 60% and the inhibition at 30 µM is not below 60%.
For `O=C(NCc1ccccc1)c1cccc(Nc2ccc(-c3ccc(F)cc3)nn2)c1` [Compound A16], at human ANO6 [1], the inhibition at 0.1 µM was less than 30% and the inhibition at 1 µM is less than 30%. Moreover, at human ANO6 [2], the inhibition at 1 µM lay within 30 to 60% and the inhibition at 30 µM is not below 60%.
For `CC(CCc1ccccc1)NC(=O)c1cccc(Nc2ccc(-c3ccccc3)nn2)c1` (stereo not shown) [Compound A58], on human ANO6 [1], the inhibition at 0.1 µM was less than 30% and the inhibition at 1 µM was less than 30%. At human ANO6 [2], the inhibition at 1 µM is not below 60% and the inhibition at 30 µM is not below 60%.
On to `CCCNC(=O)c1cccc(Nc2ccc(-c3ccccc3)nn2)c1` [Compound A68], for which, at human ANO6 [1], the inhibition at 0.1 µM was less than 30% and the inhibition at 1 µM is less than 30%. Moreover, on human ANO6 [2], the inhibition at 1 µM was not below 60% and the inhibition at 30 µM was not below 60%.
As to `Cc1ccccc1CNC(=O)c1cccc(Nc2ccc(-c3ccccc3)nn2)c1` [Compound A48], at human ANO6 [1], the inhibition at 0.1 µM is less than 30% and the inhibition at 1 µM was in the range of 30 to 60%. In addition, on human ANO6 [2], the inhibition at 1 µM was not below 60% and the inhibition at 30 µM was not below 60%.
Consider `CCCCCNC(=O)c1cccc(Nc2ccc(-c3ccccc3)nn2)c1` [Compound A72], for which, on human ANO6 [1], the inhibition at 1 µM lay in the range of 30 to 60%. At human ANO6 [2], the inhibition at 1 µM is not below 60% and the inhibition at 30 µM was not below 60%.
`O=C(N[C@@H]1C[C@H]1c1ccccc1)c1cccc(Nc2ccc(-c3ccccc3)cn2)c1` [Compound 115, N-[(1R,2S)-2-phenylcyclopropyl]-3-[(5-phenylpyridin-2-yl)amino]benzamide]: on human ANO6 [1], the inhibition at 0.1 µM is not below 60% and the inhibition at 1 µM was not below 60%. Also, the inhibition at 1 µM at human ANO6 [2] is not below 60%.
Consider `Cc1ccc(CNC(=O)c2cccc(Nc3ccc(-c4ccccc4)nc3)c2)o1` [Compound 6, N-[(5-methylfuran-2-yl)methyl]-3-[(6-phenylpyridin-3-yl)amino]benzamide], for which the inhibition at 1 µM on human ANO6 [1] fell in the range of 30 to 60%. In addition, at human ANO6 [2], the inhibition at 1 µM is not below 60% and the inhibition at 30 µM was not below 60%.
Consider `O=C(NC1CCCC1)c1cccc(Nc2ccc(-c3ccc(F)cc3)nn2)c1` [Compound A14], for which, on human ANO6 [1], the inhibition at 0.1 µM was less than 30% and the inhibition at 1 µM is less than 30%. Also, at human ANO6 [2], the inhibition at 1 µM is not below 60% and the inhibition at 30 µM was not below 60%.
`O=C(NCCc1ccccc1)c1cccc(Nc2ncc(-c3ccccc3)cn2)c1` [Compound 52, N-(2-phenylethyl)-3-[(5-phenylpyrimidin-2-yl)amino]benzamide]: the inhibition at 1 µM on human ANO6 [1] was 30 to 60%; on human ANO6 [2], not below 60%.
As to `O=C(NC1CCC1)c1cccc(Nc2ccc(-c3ccccc3)nn2)c1` [Compound 25, N-cyclobutyl-3-[(6-phenylpyridazin-3-yl)amino]benzamide], the inhibition at 1 µM at human ANO6 [1] and on human ANO6 [2] was 30 to 60% in each case. The inhibition at 30 µM on human ANO6 [2] is not below 60%.
Consider `O=C(N[C@@H]1C[C@H]1c1ccccc1)c1cccc(Nc2ncc(-c3ccccc3)cn2)c1` [Compound 117, N-[(1R,2S)-2-phenylcyclopropyl]-3-[(5-phenylpyrimidin-2-yl)amino]benzamide], for which, at human ANO6 [1], the inhibition at 0.1 µM was less than 30%. Moreover, the inhibition at 1 µM on human ANO6 [1] was less than 30%; on human ANO6 [2], not below 60%.
Turning to `O=C(NCc1ccc2c(c1)OCO2)c1cccc(Nc2ccc(-c3ccccc3)nn2)c1` [Compound A64], at human ANO6 [1], the inhibition at 0.1 µM is less than 30% and the inhibition at 1 µM is less than 30%. At human ANO6 [2], the inhibition at 1 µM was in the range of 30 to 60% and the inhibition at 30 µM was not below 60%.
On to `O=C(NCc1ccccc1)c1cccc(Nc2ccc(-c3ccccc3)nn2)c1` [Compound A75], for which, on human ANO6 [1], the inhibition at 0.1 µM is less than 30% and the inhibition at 1 µM was in the range of 30 to 60%. For the same compound, on human ANO6 [2], the inhibition at 1 µM lay within 30 to 60% and the inhibition at 30 µM is not below 60%.
As to `Cc1cccc(-c2ccc(Nc3cccc(C(=O)NCC(C)C)c3)nn2)c1` [Compound A32], on human ANO6 [1], the inhibition at 0.1 µM is less than 30% and the inhibition at 1 µM is less than 30%. Besides, at human ANO6 [2], the inhibition at 1 µM is not below 60% and the inhibition at 30 µM is not below 60%.
For `CCN(CCNC(=O)c1cccc(Nc2ccc(-c3ccccc3)nn2)c1)Cc1ccccc1` [Compound A41], on human ANO6 [1], the inhibition at 0.1 µM is less than 30% and the inhibition at 1 µM lay in the range of 30 to 60%. Also, at human ANO6 [2], the inhibition at 1 µM lay in the range of 30 to 60% and the inhibition at 30 µM was not below 60%.
Take `CC(C)c1ccc(CNC(=O)c2cccc(Nc3ccc(-c4ccc(F)cc4)nn3)c2)cc1` [Compound A36]: at human ANO6 [1], the inhibition at 0.1 µM is less than 30% and the inhibition at 1 µM is less than 30%. For the same compound, at human ANO6 [2], the inhibition at 1 µM was not below 60% and the inhibition at 30 µM was not below 60%.
As for `O=C(NCCCc1ccccc1)c1cccc(Nc2ncc(-c3cccc(F)c3)cn2)c1` [Compound 60, 3-{[5-(3-fluorophenyl)pyrimidin-2-yl]amino}-N-(3-phenylpropyl)benzamide], at human ANO6 [1], the inhibition at 0.1 µM lay within 30 to 60% and the inhibition at 1 µM was not below 60%. Besides, the inhibition at 1 µM on human ANO6 [2] is not below 60%.
Regarding `O=C(NCCc1ccccc1)c1cccc(Nc2ccc(-c3cccc(F)c3)cn2)c1` [Compound 121, 3-{[5-(3-fluorophenyl)pyridin-2-yl]amino}-N-(2-phenylethyl)benzamide], the inhibition at 1 µM on human ANO6 [1] was 30 to 60%; at human ANO6 [2], not below 60%.
